This experiment has as its system C. parvum strain UGA1. Put plainly: C. parvum growth inhibition assay (Nluc luminescence in HCT-8 cells). It is filed as cell-based, Cryptosporidium parvum. The conditions noted are these: Cryptosporidium parvum; for inhibition at 1 µM / inhibition at 10 µM: HCT-8; for inhibition at 1 µM: read-out: % inh @ 1 uM C. parvum; for inhibition at 10 µM: read-out: % inh @ 10 uM C. parvum; for EC50: HCT-8, 48 h, C. parvum growth inhibition in HCT-8 cells, 48 hours, 6 concentrations 10-0.04 μM. The protocol:
C. parvum GROWTH INHIBITION ASSAYS
C. parvum growth inhibition was performed as described in Hulverson M A, Vinayak S, Choi R, Schaefer D A, Castellanos-Gonzalez A, Vidadala R S R, Brooks C F, Herbert G T, Betzer D P, Whitman G R, Sparks H N, Arnold S L M, Rivas K L, Barrett L K, White A C Jr, Maly D J, Riggs M W, Striepen B, Van Voorhis W C, Ojo K K. Bumped-Kinase Inhibitors for Cryptosporidiosis Therapy. J Infect Dis. 2017 Apr. 15; 215(8):1275-1284.
C. parvum strain UGA1 […] (ATCC, Manassas, VA) were prepared as described below. HCT-8 cells were inoculated onto 96-well plates were grown for 48 hours to 90%-100% confluence. C. parvum oocysts were then incubated for 10 minutes in 10% bleach at room temperature and washed with Dulbecco's phosphate-buffered saline. One thousand oocysts per well were applied to plates with Roswell Park Memorial Institute 1640 (RPMI) medium supplemented with 10% horse serum and 1% penicillin/streptomycin. Compounds of Formula (I), Formula (II), and Formula (III) were added to the plates at different concentrations and the plates were incubated for 48 hours. Following the incubation, the monolayers were lysed for 1 hour before a luciferase reagent was added, and relative luminescence units were determined.
For certain compounds of Formula I, Formula II, and Formula III, EC50 values were calculated using curves calculated from Prism after analysis of C. parvum growth inhibition at 6 different concentrations: 10, 3.33, 1.11, 0.37, 0.12, and 0.04 μM. […] For certain compounds of Formula I, Formula II, and Formula III, single point inhibition values of 0-33% (activity level D), between 33% and 66% (activity level E), and between 67% and 100% (activity level F) are also shown in Table 1 below.

[1] abbreviates: single point inhibition @ 10 uM.
The mark [2] stands for this setting: single point inhibition at 1 uM.
The mark [3] stands for this setting: single point inhibition at 10 uM.

28 molecules from patent publication US20240124444A1 (Celgene Corporation, priority 2020, published 2024) can be followed below.

Like-named read-outs stand apart in the source and are kept apart here.

Consider `Cc1cc(-c2cc3cnc(NC(=O)OC4CCOC4)cc3[nH]2)ccn1` (stereo in doubt) [Example 152, (R)-tetrahydrofuran-3-yl 2-(2-methylpyridin-4-yl)-1H-pyrrolo[3,2-c]pyridin-6-ylcarbamate], for which, where the note is “single point inhibition @ 1 uM”, the inhibition at 1 µM fell in the range of 0 to 33%. Besides, the inhibition at 10 µM under setting [1] lay within 67 to 100%.
For orientation: EC50 means the concentration that produces a half-maximal response. A low value points to greater potency. `CC(C)c1cc(-c2cc3cnc(NC4CCOCC4)cc3n2C)ncn1` [Example 395, 2-(6-isopropylpyrimidin-4-yl)-1-methyl-N-(tetrahydro-2H-pyran-4-yl)-1H-pyrrolo[3,2-c]pyridin-6-amine]: the EC50 was > 1 µM.
Take `Cc1cccc(-c2cc3cnc(NC(=O)C4CC4)cc3n2C)c1` [Example 346, N-(1-methyl-2-m-tolyl-1H-pyrrolo[3,2-c]pyridin-6-yl)cyclopropanecarboxamide]: the EC50 was > 1 µM.
Consider `CCn1cc(C(=O)Nc2cc3[nH]c(-c4ccnc(OCC(F)F)n4)cc3cn2)c(C)n1` [Example 318], for which the inhibition at 1 µM under setting [2] was in the range of 0 to 33%. Moreover, the inhibition at 10 µM under setting [3] was in the range of 0 to 33%.
In the case of `Cc1cc(-c2cc3cnc(NC(=O)C(C)(C)C)cc3[nH]2)ccn1` [Example 301, N-(2-(2-methylpyridin-4-yl)-1H-pyrrolo[3,2-c]pyridin-6-yl)pivalamide], under setting [2], the inhibition at 1 µM lay in the range of 0 to 33%. Further, the inhibition at 10 µM under setting [3] lay in the range of 0 to 33%.
With `CCOc1nccc(-c2cc3cnc(NC(=O)c4cnn([C@H]5C[C@H](O)C5)c4)cc3[nH]2)n1` [Example 270, N-(2-(2-ethoxypyrimidin-4-yl)-1H-pyrrolo[3,2-c]pyridin-6-yl)-1-((1r,3r)-3-hydroxycyclobutyl)-1H-pyrazole-4-carboxamide], the inhibition at 1 µM under setting [2] lay within 0 to 33%. For the same molecule, under setting [3], the inhibition at 10 µM was in the range of 0 to 33%.
For the molecule `Cn1cc(C(=O)Nc2cc3c(cn2)cc(C#N)n3C)cn1` [Example 279, N-(2-cyano-1-methyl-1H-pyrrolo[3,2-c]pyridin-6-yl)-1-methyl-1H-pyrazole-4-carboxamide], the inhibition at 1 µM under setting [2] was in the range of 0 to 33%. Also, the inhibition at 10 µM under setting [3] fell in the range of 0 to 33%.
Consider `Cc1cc(-c2cc3cnc(NC(=O)C4CCCOC4)cc3[nH]2)ccn1` (centres unmarked) [Example 155, N-(2-(2-methylpyridin-4-yl)-1H-pyrrolo[3,2-c]pyridin-6-yl)tetrahydro-2H-pyran-3-carboxamide], for which the inhibition at 1 µM (single point inhibition @ 1 uM) was in the range of 0 to 33%. Under setting [1], the inhibition at 10 µM fell in the range of 67 to 100%.
With `CO[C@H]1CC[C@H](Nc2cc3[nH]c(-c4cccnc4)cc3cn2)CC1` [Example 274, N-((1r,4r)-4-methoxycyclohexyl)-2-(pyridin-3-yl)-1H-pyrrolo[3,2-c]pyridin-6-amine], the inhibition at 1 µM under setting [2] was in the range of 0 to 33%. In addition, the inhibition at 10 µM under setting [3] was 0 to 33%.
Turning to `CCOc1nccc(-c2cc3cnc(NC(=O)CC4COC4)cc3[nH]2)n1` [Example 139, N-(2-(2-ethoxypyrimidin-4-yl)-1H-pyrrolo[3,2-c]pyridin-6-yl)-2-(oxetan-3-yl)acetamide], the inhibition at 1 µM (single point inhibition @ 1 uM) lay in the range of 0 to 33%. Also, the inhibition at 10 µM under setting [1] lay within 67 to 100%.
As for `Cn1cnc(-c2cc3cnc(NC4CCOCC4)cc3n2C)c1` [Example 348, 1-methyl-2-(1-methyl-1H-imidazol-4-yl)-N-(tetrahydro-2H-pyran-4-yl)-1H-pyrrolo[3,2-c]pyridin-6-amine], the EC50 is > 1 µM.
For the molecule `Cn1cc(C(=O)Nc2cc3[nH]c(-c4ccnc(C#N)c4)cc3cn2)cn1` [Example 239, N-(2-(2-cyanopyridin-4-yl)-1H-pyrrolo[3,2-c]pyridin-6-yl)-1-methyl-1H-pyrazole-4-carboxamide], the inhibition at 1 µM under setting [2] was 0 to 33%. Also, the inhibition at 10 µM under setting [3] was 33 to 66%.
With `Cc1cn(C)nc1C(=O)Nc1cc2[nH]c(-c3ccncc3)cc2cn1` [Example 281, 1,4-dimethyl-N-(2-(pyridin-4-yl)-1H-pyrrolo[3,2-c]pyridin-6-yl)-1H-pyrazole-3-carboxamide], the inhibition at 1 µM under setting [2] was 0 to 33%. Further, under setting [3], the inhibition at 10 µM was 0 to 33%.
As to `COc1nccc(-c2cc3cnc(NC(=O)c4cn(C)nc4C)cc3[nH]2)n1` [Example 250, N-(2-(2-methoxypyrimidin-4-yl)-1H-pyrrolo[3,2-c]pyridin-6-yl)-1,3-dimethyl-1H-pyrazole-4-carboxamide], the inhibition at 1 µM under setting [2] fell in the range of 0 to 33%. Under setting [3], the inhibition at 10 µM fell in the range of 0 to 33%.
For `O=C(Nc1cc2[nH]c(-c3ccncc3)cc2cn1)c1ccccc1` [Example 277, N-(2-(pyridin-4-yl)-1H-pyrrolo[3,2-c]pyridin-6-yl)benzamide], under setting [2], the inhibition at 1 µM was 0 to 33%. The inhibition at 10 µM under setting [3] lay in the range of 0 to 33%.
Regarding `N#Cc1cc2cnc(Nc3cccc(-c4nc[nH]n4)c3)cc2[nH]1` [Example 145, 6-(3-(1H-1,2,4-triazol-3-yl)phenylamino)-1H-pyrrolo[3,2-c]pyridine-2-carbonitrile], the inhibition at 1 µM (single point inhibition @ 1 uM) was in the range of 0 to 33%. For the same molecule, under setting [1], the inhibition at 10 µM was 67 to 100%.
As to `Cc1cc(-c2cc3cnc(NC(=O)c4ncoc4C)cc3[nH]2)ccn1` [Example 290, 5-methyl-N-(2-(2-methylpyridin-4-yl)-1H-pyrrolo[3,2-c]pyridin-6-yl)oxazole-4-carboxamide], under setting [2], the inhibition at 1 µM lay within 0 to 33%. Besides, under setting [3], the inhibition at 10 µM was 0 to 33%.
For `CC(C)n1cc(C(=O)Nc2cc3[nH]c(-c4ccnc(OCCF)n4)cc3cn2)cn1` [Example 146, N-(2-(2-(2-fluoroethoxy)pyrimidin-4-yl)-1H-pyrrolo[3,2-c]pyridin-6-yl)-1-isopropyl-1H-pyrazole-4-carboxamide], the inhibition at 1 µM (single point inhibition @ 1 uM) was 0 to 33%. In addition, under setting [1], the inhibition at 10 µM was 67 to 100%.
On to `Cn1cc(C(=O)Nc2cc3[nH]c(-c4ccc(F)cn4)cc3cn2)cn1` [Example 334, N-(2-(5-fluoropyridin-2-yl)-1H-pyrrolo[3,2-c]pyridin-6-yl)-1-methyl-1H-pyrazole-4-carboxamide], for which the inhibition at 1 µM under setting [2] is 0 to 33%. In addition, the inhibition at 10 µM under setting [3] is 0 to 33%.
As for `Cc1nccc(-c2cc3cnc(NC4CCOCC4)cc3n2C)n1` [Example 378, 1-methyl-2-(2-methylpyrimidin-4-yl)-N-(tetrahydro-2H-pyran-4-yl)-1H-pyrrolo[3,2-c]pyridin-6-amine], the EC50 is > 1 µM.
On the same count and under the same terms, the result for `Cc1c[nH]c2cc(NC(=O)C3CC3)ncc12` [Example 115, N-(3-methyl-1H-pyrrolo[3,2-c]pyridin-6-yl)cyclopropanecarboxamide] reads > 1 µM.
For the molecule `COc1ccc(Nc2cc3c(cn2)cc(-c2cnn(C)c2)n3C)c(C)c1` [Example 258, N-(4-methoxy-2-methylphenyl)-1-methyl-2-(1-methyl-1H-pyrazol-4-yl)-1H-pyrrolo[3,2-c]pyridin-6-amine], the inhibition at 1 µM under setting [2] is 0 to 33%. Also, the inhibition at 10 µM under setting [3] lay within 0 to 33%.
As for `Cc1cc(-c2cc3cnc(NC(=O)c4cccc5[nH]ncc45)cc3[nH]2)ccn1` [Example 289, N-(2-(2-methylpyridin-4-yl)-1H-pyrrolo[3,2-c]pyridin-6-yl)-1H-indazole-4-carboxamide], the inhibition at 1 µM under setting [2] was 0 to 33%. Also, the inhibition at 10 µM under setting [3] was in the range of 0 to 33%.
Turning to `Cc1cc(-c2cc3cnc(NC(=O)C4CC4)cc3n2CCN)ncn1` [Example 75, N-(1-(2-aminoethyl)-2-(6-methylpyrimidin-4-yl)-1H-pyrrolo[3,2-c]pyridin-6-yl)cyclopropanecarboxamide], the EC50 is > 1 µM.
As to `O=C(Nc1cc2[nH]c(-c3ccnc(C(F)(F)F)n3)cc2cn1)[C@H]1C[C@H](O)C1` [Example 92, (1r,3r)-3-hydroxy-N-(2-(2-(trifluoromethyl)pyrimidin-4-yl)-1H-pyrrolo[3,2-c]pyridin-6-yl)cyclobutanecarboxamide], the EC50 was > 1 µM. The inhibition at 1 µM (single point inhibition @ 1 uM) lay in the range of 33 to 66%. Besides, under setting [1], the inhibition at 10 µM lay in the range of 0 to 33%.
Turning to `CC(=O)Nc1cc2[nH]c(-c3ccncc3)cc2cn1` [Example 181, N-(2-(pyridin-4-yl)-1H-pyrrolo[3,2-c]pyridin-6-yl)acetamide], the inhibition at 1 µM (single point inhibition @ 1 uM) was in the range of 0 to 33%. Under setting [1], the inhibition at 10 µM is 67 to 100%.
With `O=C(CC1COC1)Nc1cc2[nH]c(-c3ccnc(C(F)(F)F)n3)cc2cn1` [Example 91, 2-(oxetan-3-yl)-N-(2-(2-(trifluoromethyl)pyrimidin-4-yl)-1H-pyrrolo[3,2-c]pyridin-6-yl)acetamide], the EC50 was > 1 µM. Moreover, the inhibition at 1 µM (single point inhibition @ 1 uM) was in the range of 0 to 33%. Besides, under setting [1], the inhibition at 10 µM lay within 0 to 33%.
Take `Cn1cc(C(=O)Nc2cc3[nH]c(-c4cnc[nH]4)cc3cn2)cn1` [Example 82, N-(2-(1H-imidazol-5-yl)-1H-pyrrolo[3,2-c]pyridin-6-yl)-1-methyl-1H-pyrazole-4-carboxamide]: the EC50 was > 1 µM. Further, for the setting “single point inhibition @ 1 uM”, the inhibition at 1 µM lay in the range of 0 to 33%. Also, under setting [1], the inhibition at 10 µM lay within 33 to 66%.
